This is an account of results in PubChem BioAssay AID1996.

Converted amounts (≈) assume the structure as drawn.

The conditions of this data set: buffer; pH 7.4; 200.0 µM.
Compound `Clc1cccc(Nc2nc(-c3ccncc3)nc3ccccc23)c1` registered a solubility (kinetic) below 0.2 µg/mL.

As to `CC(C)[N+](C)(CCOC(=O)C1c2ccccc2Oc2ccccc21)C(C)C.[Br-]`, the solubility (kinetic) was above 67.3 µg/mL.

`C=CCOc1c(Cl)cc(CNc2nccs2)cc1OC` came in with a kinetic solubility of 38.1 µg/mL (≈ 123 µM).

The compound `O=C(O)CSCC(=O)NCc1c(Cl)cccc1Oc1ccccc1` came in with a kinetic solubility of 52 µg/mL (≈ 142 µM).

`CCN(CC)S(=O)(=O)c1ccc(Cl)c(NC2=NCCCCC2)c1` gave a solubility (kinetic) of 32.9 µg/mL (≈ 91.9 µM).

The compound `CCc1cccc(C)c1NC(=O)N(C)C1CCCCC1` showed a solubility (kinetic) of 35.6 µg/mL (≈ 130 µM).

On to `Cc1ccc(C)c(NC(=O)NC2CCCCCCC2)c1`, for which the solubility (kinetic) is below 0.3 µg/mL.

In turn, `COC(=O)/C(C#N)=C/c1c(N2CCN(C)CC2)nc2ccccn2c1=O` came in with a kinetic solubility above 53 µg/mL.

For the compound `CCc1ccccc1NC(=O)NCc1ccc2c(c1)OCO2`, the solubility (kinetic) came out at 0.7 µg/mL (≈ 2.35 µM).

On to `O=c1[nH]c(S)c(/C=C2\C=Nc3ccccc32)s1`, for which the kinetic solubility was found to be 9.6 µg/mL (≈ 36.9 µM).

Turning to `O=C(COC(=O)c1ccc([N+](=O)[O-])o1)NCc1ccc2c(c1)OCO2`, the kinetic solubility was above 52.2 µg/mL.

In turn, `CN(Cc1nc(-c2ccccc2)no1)C1CCOCC1` returned a kinetic solubility of 36.7 µg/mL (≈ 134 µM).

In turn, `Cc1ccc(C(=O)NCCc2ccc(F)cc2)s1` returned a kinetic solubility of 5.6 µg/mL (≈ 21.3 µM).

`CCCCC(CC)C(=O)Nc1cc(=O)[nH]c2nc3ccccc3n12` (configuration not stated) registered a solubility (kinetic) of 1.9 µg/mL (≈ 5.82 µM).

Regarding `CCOCCN(C(=O)c1ccccc1Cl)c1cccc(C)c1C`, the kinetic solubility is above 49.8 µg/mL.

Compound `OC(CNCc1ccc2c(c1)OCO2)COc1ccc(F)cc1` (configuration not stated) displayed a kinetic solubility above 47.9 µg/mL.

The compound `COC(=O)c1cc(NC(=O)Cc2cccs2)cc(C(=O)OC)c1` returned a kinetic solubility of 19.5 µg/mL (≈ 58.5 µM).

For the compound `Cc1cc(N2CCOCC2)nc(C(C)C)n1`, the solubility (kinetic) worked out at 32.4 µg/mL (≈ 146 µM).

The compound `CCc1cccc(NC(=O)C2CC2c2ccccc2)c1` (configuration not stated) gave a solubility (kinetic) of 0.7 µg/mL (≈ 2.64 µM).

On to `COc1ccc(CC(=O)OCC(=O)NCc2ccc3c(c2)OCO3)cc1OC`, for which the solubility (kinetic) was above 58.1 µg/mL.

`CC1CCCC(C)N1C(=O)COC(=O)/C=C/c1ccco1` (configuration not stated) showed a solubility (kinetic) of 10 µg/mL (≈ 34.3 µM).

Consider `CC(C)(C)OC(=O)NC(CC(=O)OCc1ccccc1)C(=O)O` (configuration not stated), for which the solubility (kinetic) was above 48.5 µg/mL.

Compound `CCCCC(=O)N1CC(=O)Nc2ccc(F)cc2C1c1ccc(F)cc1` (configuration not stated) registered a kinetic solubility above 53.8 µg/mL.

For the compound `COC(=O)[C@H](Cc1ccccc1)NC(=O)N(C)Cc1ccccc1`, the kinetic solubility was above 49 µg/mL.

The compound `O=[N+]([O-])c1ccc(N2CCCCC2)nc1` had a solubility (kinetic) of 29.2 µg/mL (≈ 141 µM).

With `Cc1ccc(S(=O)(=O)c2c(C)cc(C)nc2N2CCCC2)cc1`, the kinetic solubility was 1.2 µg/mL (≈ 3.63 µM).

Take `COc1ccccc1NC(=O)CN1CCN(c2ccccc2)CC1`: the solubility (kinetic) worked out at 35.3 µg/mL (≈ 108 µM).

In turn, `O=C(NCC1CCCO1)c1cnc(Cl)c(Cl)c1` (configuration not stated) returned a solubility (kinetic) above 41.3 µg/mL.

On to `C=CCOc1nc(-c2ccccc2Cl)nc2ccccc12`, for which the kinetic solubility was 0.7 µg/mL (≈ 2.36 µM).

`O=C(O)c1ccc(OCC(O)Cn2c3ccccc3c3ccccc32)cc1` (configuration not stated) gave a kinetic solubility above 54.2 µg/mL.

With `COc1ccc(-c2noc(-c3ccoc3C)n2)cc1OC`, the kinetic solubility was found to be 0.8 µg/mL (≈ 2.79 µM).

`COc1ccc(CNC(=S)Nc2ccc(F)c(Cl)c2)cc1OC` registered a kinetic solubility of 3.2 µg/mL (≈ 9.02 µM).

`COC(=O)c1cn(Cc2cc(OC)ccc2OC)cc(F)c1=O` had a solubility (kinetic) above 48.2 µg/mL.

The compound `CC1(c2cccc(Br)c2)NC(=O)N(CC(=O)Nc2ccc3c(c2)OCCO3)C1=O` (configuration not stated) showed a kinetic solubility of 67.3 µg/mL (≈ 146 µM).

For the compound `COc1ccccc1NC(=O)CSc1nncs1`, the solubility (kinetic) was above 42.2 µg/mL.

As to `O=C(COc1ncnc2ccccc12)NC1CCCC1`, the kinetic solubility is above 40.7 µg/mL.

In turn, `CCN(CC(=O)Nc1c(F)cccc1F)C(=O)C1CC1` displayed a solubility (kinetic) of 40.7 µg/mL (≈ 144 µM).

In turn, `Cc1nc(SCc2c(Cl)cccc2Cl)nc(OC(=O)N(C)C)c1C` returned a solubility (kinetic) of 2.2 µg/mL (≈ 5.69 µM).

In turn, `CCOC(=O)C1CNc2cc(S(=O)(=O)CC)ccc2O1` (configuration not stated) displayed a solubility (kinetic) above 44.9 µg/mL.

`CCc1cccc(NC(=S)Nc2cccc3ccccc23)c1` gave a solubility (kinetic) of 3.8 µg/mL (≈ 12.4 µM).

`COc1ccc(-c2c(C#N)sc(C(N)=O)c2-c2ccc(OC)cc2)cc1` gave a solubility (kinetic) below 0.4 µg/mL.

For the compound `CCc1noc(C)c1C(=O)Nc1ccc(C#N)cc1`, the kinetic solubility is above 38.3 µg/mL.

`O=C(O)c1cccc(S(=O)(=O)Nc2ccc([N+](=O)[O-])cc2O)c1` displayed a kinetic solubility of 45.3 µg/mL (≈ 134 µM).

In turn, `OCCC1CN(C2CCC2)CCN1Cc1ccc(F)c(F)c1` (configuration not stated) had a kinetic solubility of 43 µg/mL (≈ 139 µM).

As for `CCS(=O)(=O)N1CCC(C(=O)Oc2ccc(C)c(C)c2)CC1`, the kinetic solubility was found to be 38.5 µg/mL (≈ 118 µM).

The compound `COc1ccc(C(N)=O)c(OCC(=O)Nc2cc(C)on2)c1` displayed a kinetic solubility of 11 µg/mL (≈ 36 µM).

As to `Cc1cc(NC(=O)C(C)C)ncc1NC(=O)c1ccco1`, the kinetic solubility was above 43.1 µg/mL.

As to `COc1ccc(CNC(=O)COC(=O)[C@@H]2CCCN2C(=O)c2cccs2)cc1`, the solubility (kinetic) was above 60.4 µg/mL.

The compound `O=C(OCC(=O)N1CCCCCC1)c1cccnc1Cl` registered a kinetic solubility above 44.5 µg/mL.

On to `CC(=O)Nc1ccc(NC(=O)/C=C/c2ccc(Cl)cc2)cc1`, for which the kinetic solubility is below 0.3 µg/mL.

`COc1ccc(NC(=O)c2cccc3ccccc23)cc1` displayed a solubility (kinetic) of 1.4 µg/mL (≈ 5.05 µM).

Take `Cn1c(=NC(=O)c2cccc([N+](=O)[O-])c2)sc2ccccc21`: the solubility (kinetic) was below 0.2 µg/mL.
